Numbers after ± are expanded uncertainties.
Assay: xn = mol fraction of the nth substance listed
Settings: 101 kPa, Liquid

Q: Which results are given for CC[S+]([O-])CC [diethyl sulfoxide] + O?
A: mass density (298.15 K, x1 = 0.0997): 1027.6 ± 1.7 kg/m3; mass density (298.15 K, x1 = 0.1996): 1038.6 ± 1.9 kg/m3; mass density (298.15 K, x1 = 0.2517): 1038.4 ± 1.9 kg/m3; mass density (298.15 K, x1 = 0.2978): 1037.8 ± 1.9 kg/m3; mass density (298.15 K, x1 = 0.3481): 1035.8 ± 1.9 kg/m3; mass density (298.15 K, x1 = 0.3946): 1034.7 ± 1.8 kg/m3; mass density (298.15 K, x1 = 0.4496): 1031.6 ± 1.8 kg/m3; mass density (298.15 K, x1 = 0.5053): 1029.6 ± 1.8 kg/m3; mass density (298.15 K, x1 = 0.5962): 1026.4 ± 1.7 kg/m3; mass density (298.15 K, x1 = 0.6971): 1021.9 ± 1.6 kg/m3; mass density (298.15 K, x1 = 0.8061): 1018.2 ± 1.6 kg/m3; mass density (298.15 K, x1 = 0.8946): 1015.3 ± 1.5 kg/m3; mass density (298.15 K, x1 = 1): 1010.2 ± 1.4 kg/m3; mass density (303.15 K, x1 = 0.0997): 1024.2 ± 1.7 kg/m3; mass density (303.15 K, x1 = 0.1996): 1034.2 ± 1.8 kg/m3; mass density (303.15 K, x1 = 0.2517): 1033.7 ± 1.8 kg/m3; mass density (303.15 K, x1 = 0.2978): 1033.3 ± 1.8 kg/m3; mass density (303.15 K, x1 = 0.3481): 1031.4 ± 1.8 kg/m3; mass density (303.15 K, x1 = 0.3946): 1030.2 ± 1.8 kg/m3; mass density (303.15 K, x1 = 0.4496): 1027.2 ± 1.7 kg/m3; mass density (303.15 K, x1 = 0.5053): 1025.1 ± 1.7 kg/m3; mass density (303.15 K, x1 = 0.5962): 1022.1 ± 1.6 kg/m3; mass density (303.15 K, x1 = 0.6971): 1017.5 ± 1.6 kg/m3; mass density (303.15 K, x1 = 0.8061): 1013.9 ± 1.5 kg/m3; mass density (303.15 K, x1 = 0.8946): 1011 ± 1.5 kg/m3; mass density (303.15 K, x1 = 1): 1005.8 ± 1.4 kg/m3; mass density (308.15 K, x1 = 0.0997): 1020.7 ± 1.6 kg/m3; mass density (308.15 K, x1 = 0.1996): 1029.8 ± 1.8 kg/m3; mass density (308.15 K, x1 = 0.2517): 1029.6 ± 1.8 kg/m3; mass density (308.15 K, x1 = 0.2978): 1028.8 ± 1.7 kg/m3; mass density (308.15 K, x1 = 0.3481): 1026.8 ± 1.7 kg/m3; mass density (308.15 K, x1 = 0.3946): 1025.7 ± 1.7 kg/m3; mass density (308.15 K, x1 = 0.4496): 1022.7 ± 1.7 kg/m3; mass density (308.15 K, x1 = 0.5053): 1020.6 ± 1.6 kg/m3; mass density (308.15 K, x1 = 0.5962): 1017.6 ± 1.6 kg/m3; mass density (308.15 K, x1 = 0.6971): 1013.1 ± 1.5 kg/m3; mass density (308.15 K, x1 = 0.8061): 1009.6 ± 1.4 kg/m3; mass density (308.15 K, x1 = 0.8946): 1006.7 ± 1.4 kg/m3; mass density (308.15 K, x1 = 1): 1001.4 ± 1.3 kg/m3; mass density (313.15 K, x1 = 0.0997): 1017.1 ± 1.6 kg/m3; mass density (313.15 K, x1 = 0.1996): 1025.4 ± 1.7 kg/m3; mass density (313.15 K, x1 = 0.2517): 1025 ± 1.7 kg/m3; mass density (313.15 K, x1 = 0.2978): 1024.2 ± 1.7 kg/m3; mass density (313.15 K, x1 = 0.3481): 1022.2 ± 1.6 kg/m3; mass density (313.15 K, x1 = 0.3946): 1021.2 ± 1.6 kg/m3; mass density (313.15 K, x1 = 0.4496): 1018.3 ± 1.6 kg/m3; mass density (313.15 K, x1 = 0.5053): 1016.2 ± 1.5 kg/m3; mass density (313.15 K, x1 = 0.5962): 1013.2 ± 1.5 kg/m3; mass density (313.15 K, x1 = 0.6971): 1008.7 ± 1.4 kg/m3; mass density (313.15 K, x1 = 0.8061): 1005.2 ± 1.4 kg/m3; mass density (313.15 K, x1 = 0.8946): 1002.3 ± 1.3 kg/m3; mass density (313.15 K, x1 = 1): 997 ± 1.3 kg/m3; mass density (318.15 K, x1 = 0.0997): 1013.4 ± 1.5 kg/m3; mass density (318.15 K, x1 = 0.1996): 1020.9 ± 1.6 kg/m3; mass density (318.15 K, x1 = 0.2517): 1020.5 ± 1.6 kg/m3; mass density (318.15 K, x1 = 0.2978): 1019.6 ± 1.6 kg/m3; mass density (318.15 K, x1 = 0.3481): 1017.6 ± 1.6 kg/m3; mass density (318.15 K, x1 = 0.3946): 1016.6 ± 1.6 kg/m3; mass density (318.15 K, x1 = 0.4496): 1013.8 ± 1.5 kg/m3; mass density (318.15 K, x1 = 0.5053): 1011.7 ± 1.5 kg/m3; mass density (318.15 K, x1 = 0.5962): 1008.7 ± 1.4 kg/m3; mass density (318.15 K, x1 = 0.6971): 1004.3 ± 1.4 kg/m3; mass density (318.15 K, x1 = 0.8061): 1000.8 ± 1.3 kg/m3; mass density (318.15 K, x1 = 0.8946): 997.9 ± 1.3 kg/m3; mass density (318.15 K, x1 = 1): 992.6 ± 1.4 kg/m3

— the NIST ThermoML archive (doi:10.1016/j.jct.2004.11.017)
